Reference: ChEMBL document CHEMBL1140835, “Design, synthesis, and in vitro antitumor activity of new 1,4-diarylimidazole-2-ones and their 2-thione analogues” (2008)

How the values were obtained:
Type in all cases: functional
[1] = test system: HL-60; assay: Antiproliferative activity against human HL60 cells
[2] = test system: MOLT-4; assay: Antiproliferative activity against human MOLT4 cells
[3] = test system: RPMI-8226; assay: Antiproliferative activity against human RPMI8226 cells
[4] = test system: SR; assay: Antiproliferative activity against human SR cells; conditions: for TGI: read-out: pTGI (converted)
[5] = test system: EKVX; assay: Antiproliferative activity against human EKVX cells
[6] = test system: HOP-92; assay: Antiproliferative activity against human HOP92 cells; conditions: for TGI: read-out: pTGI (converted)
[7] = test system: HCT-116; assay: Antiproliferative activity against human HCT116 cells
[8] = test system: HCT-15; assay: Antiproliferative activity against human HCT15 cells
[9] = test system: SF-295; assay: Antiproliferative activity against human SF295 cells
[10] = test system: SNB-75; assay: Antiproliferative activity against human SNB75 cells
[11] = test system: LOX IMVI; assay: Antiproliferative activity against human LOX IMVI cells; conditions: for TGI: read-out: pTGI (converted)
[12] = test system: SK-MEL-5; assay: Antiproliferative activity against human SK-MEL-5 cells
[13] = test system: UACC-62; assay: Antiproliferative activity against human UACC62 cells
[14] = test system: 786-0; assay: Antiproliferative activity against human 786-0 cells
[15] = test system: CAKI-1; assay: Antiproliferative activity against human CAKI-1 cells
[16] = test system: UO-31; assay: Antiproliferative activity against human UO31 cells
[17] = test system: PC-3; assay: Antiproliferative activity against human PC3 cells
[18] = test system: DU-145; assay: Antiproliferative activity against human DU145 cells
[19] = test system: Hs-578T; assay: Antiproliferative activity against human HS578T cells
[20] = Antiproliferative activity against human […] cells
[21] = test system: SF-539; assay: Antiproliferative activity against human SF539 cells
[22] = test system: CCRF-CEM; assay: Antiproliferative activity against human CCRF-CEM cells
[23] = test system: RXF 393; assay: Antiproliferative activity against human RXF393 cells

Row | Compound | GI50 [1] [µM] | GI50 [2] [µM] | GI50 [3] [µM] | GI50 [5] [µM] | GI50 [6] [µM] | GI50 [7] [µM] | GI50 [8] [µM] | GI50 [9] [µM] | GI50 [10] [µM] | GI50 [11] [µM] | GI50 [12] [µM] | GI50 [13] [µM] | GI50 [14] [µM] | GI50 [15] [µM] | GI50 [16] [µM] | GI50 [17] [µM] | GI50 [18] [µM] | GI50 [19] [µM] | GI50 [20] [µM] | GI50 [21] [µM] | also measured
1 | COc1cc(-n2cc(-c3ccccc3)[nH]c2=O)cc(OC)c1OC | 63.1 | > 100 | > 100 | 25.1 | 20 | 63.1 | 79.4 | 39.8 | 12.6 | > 100 | 39.8 | 39.8 | 25.1 | 39.8 | 39.8 | 39.8 | 1.58 | 31.6 | 31.6 | 20 | GI50 [4]: > 100 µM
2 | COc1ccc(-c2cn(-c3ccc(OC)c(OC)c3)c(=O)[nH]2)cc1 | 39.8 | 1.58 | > 100 | > 100 | > 100 | > 100 | > 100 | > 100 | 25.1 | > 100 | 63.1 | > 100 | > 100 | > 100 | > 100 | > 100 | > 100 | > 100 | 50.1 | > 100 | GI50 [22]: > 100 µM; GI50 [4]: 0.1 µM; TGI [4]: 0.631 µM
3 | COc1ccc(-n2cc(-c3ccc(Cl)cc3)[nH]c2=S)cc1Cl | > 100 | 39.8 | 50.1 | 39.8 | 15.8 | 50.1 | > 100 | 25.1 | 20 | 100 | 39.8 | 79.4 | 20 | 25.1 | 20 | 31.6 | 39.8 | 25.1 | 20 | 20 | GI50 [22]: 63.1 µM; GI50 [23]: 25.1 µM
4 | COc1ccc(-n2cc(-c3ccc(OC)c(OC)c3)[nH]c2=S)cc1Cl | > 100 | 79.4 | > 100 | 39.8 | 39.8 | > 100 | > 100 | 39.8 | 5.01 | > 100 | > 100 | > 100 | 50.1 | > 100 | > 100 | > 100 | > 100 | 39.8 | > 100 | 39.8 | GI50 [22]: > 100 µM; GI50 [4]: > 100 µM
5 | COc1cc(-n2cc(-c3ccc(Cl)cc3)[nH]c2=O)cc(OC)c1OC | > 100 | > 100 | 12.6 | 31.6 |  | 31.6 | > 100 | 31.6 | 25.1 | 63.1 | 31.6 | 25.1 | 15.8 | 15.8 | 20 | 15.8 | 63.1 | 79.4 |  | 25.1 | GI50 [22]: < 0.01 µM; GI50 [4]: > 100 µM
6 | COc1ccc(-n2cc(-c3cc(OC)c(OC)c(OC)c3)[nH]c2=S)cc1Cl | > 100 | > 100 | 5.01 | 39.8 | 31.6 | 25.1 | > 100 | 39.8 | 20 | 6.31 | 25.1 | > 100 | 25.1 | 5.01 | 39.8 | 50.1 | 31.6 | 15.8 | 31.6 | 20 | GI50 [22]: 0.631 µM; GI50 [23]: 15.8 µM
7 | COc1ccc(-n2cc(-c3cc(OC)c(OC)c(OC)c3)[nH]c2=S)cc1OC | > 100 | 6.31 | > 100 | > 100 | > 100 | > 100 | > 100 | > 100 | 63.1 | > 100 | > 100 | > 100 | > 100 | > 100 | > 100 | > 100 | > 100 | > 100 | > 100 | > 100 | GI50 [22]: > 100 µM; GI50 [4]: 2.51 µM; TGI [4]: 7.94 µM; GI50 [23]: > 100 µM
8 | COc1ccc(-c2cn(-c3ccc(Cl)cc3)c(=S)[nH]2)cc1OC | 3.16 | > 100 | 3.98 | 12.6 | 0.316 | 3.98 | 5.01 | 6.31 | 15.8 | 1.58 | 3.16 |  | 6.31 | 3.16 | 39.8 | 63.1 | 12.6 | 20 | 6.31 | 31.6 | GI50 [22]: > 100 µM; GI50 [4]: 3.16 µM; TGI [6]: 7.94 µM; LC50 [11]: 6.31 µM; TGI [11]: 3.16 µM; GI50 [23]: 3.16 µM
9 | COc1ccc(/C=C\c2cc(OC)c(OC)c(OC)c2)cc1O [COMBRETASTATIN A4] |  | 0.1 | 0.158 | 0.398 | 0.2 | 0.0316 | 0.0316 | 0.0631 | 0.794 | 0.01 | 0.01 | 0.01 | 0.0199 | 0.0398 | 0.2 | 0.0316 | 0.01 | 0.158 | 50.1 | 0.0398 | GI50 [22]: 0.1 µM; GI50 [4]: 0.126 µM; TGI [4]: 79.4 µM; TGI [6]: 39.8 µM; TGI [11]: 12.6 µM; GI50 [23]: 0.794 µM
10 | COc1cc(-c2cn(-c3ccc(Cl)cc3)c(=O)[nH]2)cc(OC)c1OC | 0.398 | 0.0199 | > 100 | > 100 | > 100 | > 100 | > 100 | > 100 | > 100 |  | > 100 | > 100 | > 100 | > 100 | > 100 | > 100 | > 100 | > 100 | > 100 | > 100 | GI50 [22]: > 100 µM; GI50 [4]: 0.0316 µM; TGI [4]: 39.8 µM; GI50 [23]: > 100 µM
11 | COc1ccc(-n2cc(-c3cc(OC)c(OC)c(OC)c3)[nH]c2=O)cc1Cl | > 100 | > 100 | > 100 | > 100 | 15.8 | > 100 | > 100 | 39.8 | 6.31 | > 100 | > 100 | 50.1 | 25.1 | > 100 | > 100 | > 100 |  | 31.6 | > 100 | 31.6 | GI50 [22]: > 100 µM; GI50 [4]: 50.1 µM
12 | O=c1[nH]c(-c2ccc(Cl)c(Cl)c2)cn1-c1ccc(Cl)cc1 | 31.6 | 20 | 63.1 | 31.6 | 15.8 | 15.8 | > 100 | 25.1 | 20 | 39.8 | 39.8 | 25.1 | 20 | 25.1 | 25.1 | 63.1 | 31.6 | 15.8 | 25.1 | 20 | GI50 [22]: 39.8 µM; GI50 [4]: 5.01 µM; TGI [4]: 15.8 µM; GI50 [23]: 31.6 µM
